Source: US7592373B2 (Boehringer Ingelheim International GmbH, priority 2003, dated 2009)
Structures can show the parent of a compound that is named as a salt.

| melting point [°C] | Compound |
| --- | --- |
| 260 to 265 | O=C(C#Cc1ccc(-c2ccccc2)cc1Cl)Nc1ccc(CN2CCCCC2)cc1 (as salt: hydrochloride) [Example 3.33, 3-(3-chlorobiphenyl-4-yl)propynoic acid-(4-piperidin-1-ylmethylphenyl)amide hydrochloride] |
| 180 to 181 | CC#Cc1ccc(NC(=O)C#Cc2ccc(CN3CCCCC3)cc2)cc1 [Example 1.2, 3-(4-piperidin-1-ylemthylphenyl)propynoic acid-(4-prop-1-ynylphenyl)amide] |
| 196 to 197 | O=C(CCc1ccc(CNC2CCCC2)cc1)Nc1ccc(-c2ccc(Cl)cc2)cc1 [Example 6.41, N-(4′-chlorobiphenyl-4-yl)-3-(4-cyclopentylaminomethylphenyl)propionamide] |
| 146 to 148 | O=C(C#Cc1ccc(CN2CCC[C@@H]2CO)cc1)Nc1ccc(-c2ccc(Cl)cc2)cc1F [Example 1.20, 3-[4-((R)-2-hydroxymethylpyrrolidin-1-ylmethyl)phenyl]propynoic acid-(4′-chloro-3-fluorobiphenyl-4-yl)amide] |
| 112 to 116 | CCN(CC)CCCOc1ccc(NC(=O)C#Cc2ccc(C(F)(F)F)cc2Cl)cc1Cl (as salt: formate) [Example 4.18, 3-(2-chloro-4-trifluoromethylphenyl)propynoic acid-[3-chloro-4-(3-diethylaminopropoxy)phenyl]amide formate] |
| 176 to 179 | O=C(C#Cc1ccc(C(F)(F)F)cc1Cl)Nc1ccc2nc(N3CCCCC3)ccc2c1 [Example 7.1, 3-(2-chloro-4-trifluoromethylphenyl)propynoic acid-(2-piperidin-1-ylquinolin-6-yl)amide] |
| 143 to 144 | COC1CCN(Cc2ccc(CCC(=O)Nc3ccc(-c4ccc(Cl)cc4)cc3)cc2)CC1 [Example 6.3, N-(4′-chlorobiphenyl-4-yl)-3-[4-(4-methoxypiperidin-1-ylmethyl)phenyl]propionamide] |
| 156 | CN(Cc1ccc(CCC(=O)Nc2ccc(-c3ccc(Cl)cc3)cc2)cc1)CC1CC1 [Example 6.13, N-(4′-chlorobiphenyl-4-yl)-3-{4-[(cyclopropylmethylmethylamino)methyl]phenyl}propionamide] |
| 217 to 218 | CN(Cc1ccc(C#CC(=O)Nc2ccc(-c3ccc(Cl)cc3)cc2)cc1)Cc1ccccn1 [Example 1.58] |
| 194 to 200 | O=C(C#Cc1ccc(-c2ccc(Cl)cc2)cc1)Nc1ccc(CN2CCC(O)(C(F)(F)F)CC2)cc1 [Example 3.17, 3-(4′-chlorobiphenyl-4-yl)propynoic acid-[4-(4-hydroxy-4-trifluoromethylpiperidin-1-ylmethyl)phenyl]amide] |
| 149 to 150.5 | O=C(CCc1ccc(CNCCC2CCCCC2)cc1)Nc1ccc(-c2ccc(Cl)cc2)cc1 [Example 6.35, N-(4′-chlorobiphenyl-4-yl)-3-{4-[(cyclohexylethylamino)methyl]phenyl}propionamide] |
| 185 to 186 | O=C(CCc1ccc(CN2CCC(CO)CC2)cc1)Nc1ccc(-c2ccc(Cl)cc2)cc1 [Example 6.6, N-(4′-chlorobiphenyl-4-yl)-3-[4-(4-hydroxymethylpiperidin-1-ylmethyl)phenyl]propionamide] |
| 208 | O=C(CCc1ccc(CNC2CCCCC2)cc1)Nc1ccc(-c2ccc(Cl)cc2)cc1 [Example 6.39, N-(4′-chlorobiphenyl-4-yl)-3-(4-cyclohexylaminomethylphenyl)propionamide] |
| 168 to 169 | CN(Cc1ccc(CCC(=O)Nc2ccc(-c3ccc(Cl)cc3)cc2)cc1)Cc1cccnc1 [Example 6.33, N-(4′-chlorobiphenyl-4-yl)-3-{4-[(methylpyridin-3-ylmethylamino)methyl]phenyl}propionamide] |
| 247 to 248 | O=C(/C=C/c1ccc(CNC2CCCCC2)cc1)Nc1ccc(-c2ccc(Cl)cc2)cc1 [Example 5.33, (E)-N-(4′-chlorobiphenyl-4-yl)-3-(4-cyclohexylaminomethylphenyl)acrylamide] |
| 98 to 100 | CCN(CC)CCOc1ccc(NC(=O)C#Cc2ccc(Cl)cc2Cl)cc1Cl [Example 4.1, 3-(2,4-dichlorophenyl)propynoic acid-[3-chloro-4-(2-diethylaminoethoxy)phenyl]amide] |
| 198 to 199 | CC#Cc1ccc(NC(=O)C#Cc2ccc(CCN3CCCC3)cc2)cc1 [Example 2.5, 3-[4-(2-pyrrolidin-1-ylethyl)phenyl]propynoic acid-(4-prop-1-ynylphenyl)amide] |
| 200 to 205 | O=C(C#Cc1ccc(C(F)(F)F)cc1Cl)Nc1ccc2c(ccn2CCN2CCCC2)c1 [Example 4.11, 3-(2-chloro-4-trifluoromethylphenyl)propynoic acid-[1-(2-pyrrolidin-1-ylethyl)-1H-indol-5-yl]amide] |
| 192 | CC1(O)CCN(Cc2ccc(CCC(=O)Nc3ccc(-c4ccc(Cl)cc4)cc3)cc2)CC1 [Example 6.9, N-(4′-chlorobiphenyl-4-yl)-3-[4-(4-hydroxy-4-methylpiperidin-1-ylmethyl)phenyl]propionamide] |
| 102 | CN(Cc1ccncc1)Cc1ccc(CCC(=O)Nc2ccc(-c3ccc(Cl)cc3)cc2)cc1 [Example 6.32, N-(4′-chlorobiphenyl-4-yl)-3-{4-[(methylpyridin-4-ylmethylamino)methyl]phenyl}propionamide] |
| 193 to 195 | O=C(C#Cc1ccc(C(F)(F)F)cc1Cl)Nc1ccc(CN2CCCCC2)cc1 (as salt: hydrochloride) [Example 3.41, 3-(2-chloro-4-trifluoromethylphenyl)propynoic acid(4-piperidin-1-ylmethylphenyl)amide hydrochloride] |
| 254 to 255 | NC(=O)C1CCN(Cc2ccc(/C=C/C(=O)Nc3ccc(-c4ccc(Cl)cc4)cc3)cc2)CC1 [Example 5.6, 1-{4-[(E)-2-(4′-chlorobiphenyl-4-ylcarbamoyl)vinyl]benzyl}piperidine-4-carboxylic acid amide] |
| 227 to 258 | CC1CCC(N(C)Cc2ccc(/C=C/C(=O)Nc3ccc(-c4ccc(Cl)cc4)cc3)cc2)CC1 (stereo not drawn) [Example 5.29, (E)-N-(4′-chlorobiphenyl-4-yl)-3-(4-{[methyl-(4-methylcyclohexyl)amino]methyl}phenyl)acrylamide] |
| 201.5 | O=C(CCc1ccc(CN2CCC3(CCCC3)CC2)cc1)Nc1ccc(-c2ccc(Cl)cc2)cc1 [Example 6.28, 3-[4-(8-azaspiro[4.5]dec-8-ylmethyl)phenyl]-N-(4′-chlorobiphenyl-4-yl)propionamide] |
| 135 | CCN(Cc1ccc(CCC(=O)Nc2ccc(-c3ccc(Cl)cc3)cc2)cc1)CC(C)(C)O [Example 6.42, N-(4′-chlorobiphenyl-4-yl)-3-(4-{[ethyl-(2-hydroxy-2-methylpropyl)amino]methyl}phenyl)propionamide] |
| 224 to 227 | O=C(C#Cc1ccc(-c2ccc(Cl)cc2)cc1)Nc1ccc2c(ccn2CCN2CCCC2)c1 [Example 3.19, 3-(4′-chlorobiphenyl-4-yl)propynoic acid-[1-(2-pyrrolidin-1-ylethyl)-1H-indol-5-yl]amide] |
| 217 to 218 | O=C(C#Cc1ccc(CCN2CCCC2)cc1)Nc1ccc(-c2ccc(Cl)cc2)cc1 [Example 2.4, 3-[4-(2-pyrrolidin-1-ylethyl)phenyl]propynoic acid-(4′-chlorobiphenyl-4-yl)amide] |
